Measured values from patent publication US9266924B2, “Cyclopentapeptide derivatives and uses thereof” (TECHNISCHE UNIVERSITÄT MÜNCHEN, priority 2010, dated 2016).
Where a SMILES comes first, the peptide text is derived from it. Side-chain parts run from the residue outwards. [ ]: non-standard residue; d: D form. The star is where a group is joined. DOTA(Ga) = O=C1CN2CCN3CCN(CC(=O)*)CCN(CC2)CC(=O)[O][Ga]([O]1)[O]C(=O)C3; DOTA(In) = O=C1CN2CCN3CCN(CC(=O)*)CCN(CC2)CC(=O)[O][In]([O]1)[O]C(=O)C3; DOTA = O=C(O)CN1CCN(CC(=O)O)CCN(CC(=O)*)CCN(CC(=O)O)CC1; 2Nal = N[C@@H](Cc1ccc2ccccc2c1)C(=O)O; dNMeOrn = CN[C@H](CCCN)C(=O)O; 4Abz = Nc1ccc(C(=O)O)cc1; AEEA = NCCOCCOCC(=O)O; Ava = NCCCCC(=O)O; βAla = NCCC(=O)O

Molecular target: T1, human-CXCR4 (Homo sapiens, UniProt P61073)
T1 construct: tested first at Jurkat cells that endogenously express the CXCR4 receptor; endogenous in cells; host or cells: Jurkat cells (whole cells in suspension)
Assay: Competition binding assay on Jurkat cells with 125I-CPCR4 as radiotracer
Details: IC50 (Exemplary Binding Study A), Jurkat cells, 125I-CPCR4 tracer, n=4
Description: For receptor binding assays cells may be resuspended in PBS/0.2% BSA. A total of 200 μl of the suspension containing 400,000 Jurkat cells may be incubated with 25 μl of the tracer solution (containing 3.1 kBq, approx. 0.1 nM) and 25 μl of the diluent or the competitor at different concentrations. […] After shaking for 2 h at room temperature, the incubation may be terminated by centrifugation at 1300 rpm for 5 min, Cell pellets may be washed once with cold PBS followed by a second centrifugation step. Cell bound radioactivity may be determined by using a gamma counter. Experiments may be repeated 2-3 times in triplicates. IC50 values of the compounds may be calculated by nonlinear regression using GraphPad Prism (GraphPad Prism 4.0 Software, Inc., San Diego, Calif., USA). Each data point may be the average of three determinations.
Cells were resuspended in 0.2% PBS/0.2% BSA. A total of 200 μL of the suspension containing 2×10^6 Jurkat cells/ml or 400000 cell/200 μl were incubated with 25 μL of the tracer solution (containing 100,000 cpm, approx. 0.1 nM) and 25 μL of competitor dissolved in ultra pure H2O or, if necessary, up to 20% DMSO at different concentrations. The tracer concentration was varied from 5 to 500 pM.
After 2 h at room temperature, the incubation was terminated by centrifugation at 2000 rpm for 5 min. Cell pellets were washed once with 400 μL cold PBS. Cell bound radioactivity was determined by using a gamma counter. Experiments were repeated three times in triplicates. IC50 values of the peptides were calculated by nonlinear regression using GraphPad Prism (GraphPad Prism 4.0 Software, San Diego, Calif., USA).
The cell concentration was determined with a Casy cell counter (500 cell suspension in 10 ml Casy solution (Innovartis AG, Casy technology). The desired cell suspension volume was transferred into an Eppendorf tube, centrifuged, the supernatant was discarded and the pellet was resuspended in 20 ml 0.2% PBS-BSA-buffer.
Subsequently, the tubes were placed on a shaker for 2 h (200 mot/min). Thereafter, the tubes were centrifuged for 5 min at 2000 rpm and the supernatant carefully removed. The pellets were washed with 400 μl PBS and the tubes were again centrifuged for 5 min at 2000 rpm. After the supernatant was carefully removed, the tubes were measured in a gamma counter. All data were analyzed with a suitable software package, i.e. GraphPad Prism 4 with the following parameters: Equation: Sigmoidal dose-response, Y=Bottom+(Top−Bottom)/(1+10^((Log EC50−X))); X is the logarithm of concentration; Y is the response; Y starts at bottom and goes to top with a sigmoid shape.

T1 sequence (P61073 whole entry): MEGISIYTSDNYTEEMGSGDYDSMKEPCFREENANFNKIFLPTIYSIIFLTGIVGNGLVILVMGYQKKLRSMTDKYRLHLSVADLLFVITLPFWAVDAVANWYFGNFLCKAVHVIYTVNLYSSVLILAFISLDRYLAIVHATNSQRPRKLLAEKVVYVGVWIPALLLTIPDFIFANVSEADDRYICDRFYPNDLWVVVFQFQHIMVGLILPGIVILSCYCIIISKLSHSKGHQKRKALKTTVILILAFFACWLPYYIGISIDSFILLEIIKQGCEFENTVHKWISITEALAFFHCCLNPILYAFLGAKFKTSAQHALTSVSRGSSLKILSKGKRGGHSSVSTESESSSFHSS

Row | Compound | IC50 [nM]
1 | CN1C(=O)[C@@H](Cc2ccc(O)cc2)NC(=O)CNC(=O)[C@H](Cc2ccc3ccccc3c2)NC(=O)[C@H](CCCNC(=N)N)NC(=O)[C@H]1CCCNC(=O)c1ccc(CNC(=O)CN2CCN(CC(=O)O)CCN(CC(=O)O)CCN(CC(=O)O)CC2)cc1 (single isomer, unassigned) [Compound 9, yorn′(AMBS, DOTA, Ga)RNalG] | 4.78 ± 0.73

Same assay, conditions: IC50 [nM] (Binding Data), Jurkat cells, 125I-CPCR4 tracer, 2 h at room temperature

Row | Compound | IC50 [nM]
2 | CN1C(=O)[C@@H](Cc2ccc(O)cc2)NC(=O)CNC(=O)[C@H](Cc2ccc3ccccc3c2)NC(=O)[C@H](CCCNC(=N)N)NC(=O)[C@H]1CCCNC(=O)c1ccc(CNC(=O)CN2CCN(CC(=O)O)CCN(CC(=O)O)CCN(CC(=O)O)CC2)cc1 (single isomer, unassigned) [Compound 9, yorn′(AMBS, DOTA, Ga)RNalG] | 7 ± 4.25

Same assay, conditions: Jurkat cells, 125I-CPCR4 tracer, 2 h at room temperature; read-out: IC50 [nM] (Binding Data)

Row | Compound | IC50 [nM]
3 | CN1C(=O)[C@@H](Cc2ccc(O)cc2)NC(=O)CNC(=O)[C@H](Cc2ccc3ccccc3c2)NC(=O)[C@H](CCCNC(=N)N)NC(=O)[C@H]1CCCNC(=O)c1ccc(NC(=O)CN2CCN(CC(=O)O)CCN(CC(=O)O)CCN(CC(=O)O)CC2)cc1 (single isomer, unassigned) [Compound 13, yorn′(ABS, DOTA, Ga)RNalG] | 11.5 ± 4.4
4 | CN1C(=O)[C@@H](Cc2ccc(O)cc2)NC(=O)CNC(=O)[C@H](Cc2ccc3ccccc3c2)NC(=O)[C@H](CCCNC(=N)N)NC(=O)[C@H]1CCCNC(=O)CN1CCN2CCN3CCN(CC1)CC(=O)[O][In]([O]C(=O)C2)[O]C(=O)C3 [Compound 20, yorn′(DOTA, In)RNalG] (cyclo([2Nal]G[dY][dNMeOrn](DOTA(In))R)) | > 1000
5 | CN1C(=O)[C@@H](Cc2ccc(O)cc2)NC(=O)CNC(=O)[C@H](Cc2ccc3ccccc3c2)NC(=O)[C@H](CCCNC(=N)N)NC(=O)[C@H]1CCCNC(=O)CCCCNC(=O)CCCCNC(=O)CN1CCN2CCN3CCN(CC1)CC(=O)[O][In]([O]C(=O)C2)[O]C(=O)C3 [Compound 23, yorn′(AVS, AVS, DOTA, In)RNalG] (cyclo([2Nal]G[dY][dNMeOrn]([Ava-Ava-DOTA(In)])R)) | 123 ± 25
6 | CN1C(=O)[C@@H](Cc2ccc(O)cc2)NC(=O)CNC(=O)[C@H](Cc2ccc3ccccc3c2)NC(=O)[C@H](CCCNC(=N)N)NC(=O)[C@H]1CCCNC(=O)c1ccc(NC(=O)CCCCNC(=O)CN2CCN(CC(=O)O)CCN(CC(=O)O)CCN(CC(=O)O)CC2)cc1 [Compound 18, yorn′(ABS, AVS, DOTA)RNalG] | 121 ± 17
7 | CN1C(=O)[C@@H](Cc2ccc(O)cc2)NC(=O)CNC(=O)[C@H](Cc2ccc3ccccc3c2)NC(=O)[C@H](CCCNC(=N)N)NC(=O)[C@H]1CCCNC(=O)CN1CCN2CCN3CCN(CC1)CC(=O)[O][Ga]([O]C(=O)C2)[O]C(=O)C3 [Compound 21, yorn′(DOTA, Ga)RNalG] (cyclo([2Nal]G[dY][dNMeOrn](DOTA(Ga))R)) | 289
8 | CN1C(=O)[C@@H](Cc2ccc(O)cc2)NC(=O)CNC(=O)[C@H](Cc2ccc3ccccc3c2)NC(=O)[C@H](CCCNC(=N)N)NC(=O)[C@H]1CCCNC(=O)c1ccc(NC(=O)CN2CCN3CCN4CCN(CC2)CC(=O)[O][Ga]([O]C(=O)C3)[O]C(=O)C4)cc1 [Compound 17, yorn′(ABS, DOTA, Ga)RNalG] (cyclo([2Nal]G[dY][dNMeOrn]([4Abz-DOTA(Ga)])R)) | 11.5 ± 4.4
9 | CN1C(=O)[C@@H](Cc2ccc(O)cc2)NC(=O)CNC(=O)[C@H](Cc2ccc3ccccc3c2)NC(=O)[C@H](CCCNC(=N)N)NC(=O)[C@H]1CCCNC(=O)CNC(=O)COCCOCCNC(=O)CN1CCN2CCN3CCN(CC1)CC(=O)[O][In]([O]C(=O)C2)[O]C(=O)C3 [Compound 26, yorn′(G, Trigas, DOTA, In)RNalG] (cyclo([2Nal]G[dY][dNMeOrn]([Gly-AEEA-DOTA(In)])R)) | 457
10 | yorn′(ABS, betaAla, DOTA, In)RNalG [Compound 4] | 30.4 ± 3.68
11 | CN1C(=O)[C@@H](Cc2ccc(O)cc2)NC(=O)CNC(=O)[C@H](Cc2ccc3ccccc3c2)NC(=O)[C@H](CCCNC(=N)N)NC(=O)[C@H]1CCCNC(=O)c1ccc(NC(=O)CNC(=O)CN2CCN(CC(=O)O)CCN(CC(=O)O)CCN(CC(=O)O)CC2)cc1 [Compound 10, yorn′(ABS, G, DOTA)RNalG] | 88.8 ± 18.4
12 | CN1C(=O)[C@@H](Cc2ccc(O)cc2)NC(=O)CNC(=O)[C@H](Cc2ccc3ccccc3c2)NC(=O)[C@H](CCCNC(=N)N)NC(=O)[C@H]1CCCNC(=O)c1ccc(NC(=O)CN2CCN3CCN4CCN(CC2)CC(=O)[O][In]([O]C(=O)C3)[O]C(=O)C4)cc1 [Compound 16, yorn′(ABS, DOTA, In)RNalG] (cyclo([2Nal]G[dY][dNMeOrn]([4Abz-DOTA(In)])R)) | 105
13 | CN1C(=O)[C@@H](Cc2ccc(O)cc2)NC(=O)CNC(=O)[C@H](Cc2ccc3ccccc3c2)NC(=O)[C@H](CCCNC(=N)N)NC(=O)[C@H]1CCCNC(=O)c1ccc(NC(=O)CN2CCN(CC(=O)O)CCN(CC(=O)O)CCN(CC(=O)O)CC2)cc1 [Compound 15, yorn′(ABS, DOTA)RNalG] | 335
14 | CN1C(=O)[C@@H](Cc2ccc(O)cc2)NC(=O)CNC(=O)[C@H](Cc2ccc3ccccc3c2)NC(=O)[C@H](CCCNC(=N)N)NC(=O)[C@H]1CCCNC(=O)c1ccc(NC(=O)CCNC(=O)CN2CCN(CC(=O)O)CCN(CC(=O)O)CCN(CC(=O)O)CC2)cc1 [Compound 1, yorn′(ABS, betaAla, DOTA)RNalG] (cyclo([dY][dNMeOrn]([4Abz-βAla-DOTA])R[2Nal]G)) | 37.6 ± 14.7
15 | CN1C(=O)[C@@H](Cc2ccc(O)cc2)NC(=O)CNC(=O)[C@H](Cc2ccc3ccccc3c2)NC(=O)[C@H](CCCNC(=N)N)NC(=O)[C@H]1CCCNC(=O)CCCCNC(=O)CCCCNC(=O)CN1CCN2CCN3CCN(CC1)CC(=O)[O][Ga]([O]C(=O)C2)[O]C(=O)C3 [Compound 24, yorn′(AVS, AVS, DOTA, Ga)RNalG] (cyclo([2Nal]G[dY][dNMeOrn]([Ava-Ava-DOTA(Ga)])R)) | 89.7 ± 18.3

Same assay, conditions: read-out: IC50 [nM] (Binding Data)

Row | Compound | IC50 [nM]
16 | CN1C(=O)[C@@H](Cc2ccc(O)cc2)NC(=O)CNC(=O)[C@H](Cc2ccc3ccccc3c2)NC(=O)[C@H](CCCNC(=N)N)NC(=O)[C@H]1CCCNC(=O)c1ccc(CNC(=O)CN2CCN(CC(=O)O)CCN(CC(=O)O)CCN(CC(=O)O)CC2)cc1 (single isomer, unassigned) [Compound 8, yorn′(AMBS, DOTA, In)RNalG] | 44.9 ± 10.4
17 | CN1C(=O)[C@@H](Cc2ccc(O)cc2)NC(=O)CNC(=O)[C@H](Cc2ccc3ccccc3c2)NC(=O)[C@H](CCCNC(=N)N)NC(=O)[C@H]1CCCNC(=O)c1ccc(NC(=O)CCCCCNC(=O)CN2CCN(CC(=O)O)CCN(CC(=O)O)CCN(CC(=O)O)CC2)cc1 [Compound 14, yorn′(ABS, Ahx, DOTA)RNalG] | > 1000
